According to publication PMC11259064, “Enhanced binding of guanylated poly(A) RNA by the LaM domain of LARP1” (RNA Biology, 2024):
Values joined by “and” are separate entries in the source; they are usually repeats but may differ in a detail not shown here. Identical values can stand only once.

Columns and labels:
[1] = target: T1, human LARP1 LaM domain (residues 323–410) (Homo sapiens, UniProt Q6PKG0); experiment: Isothermal titration calorimetry (ITC) of RNA ligands binding LARP1 (323-410); conditions: for Rel. aff. (affinity relative to AAAAAA): Figure 2B, higher = tighter binding than A6; for binding to the LaM domain by ITC (in words): LaM 40 μM in cell, cyclic dinucleotide 730-860 μM in syringe
T1 construct: human LARP1 LaM domain (residues 323–410); made in house; host or cells: E. coli
Method: ITC experiments were performed on the VP-ITC titration calorimeter (Malvern Instruments Ltd) except where noted. […] All experiments were carried out at 20°C with 29 injections of 10 µl. Results were analysed using ORIGIN software (MicroCal) and fitted to a binding model with a single set of identical sites, except where noted.

LARP1 323-410 Q333A [2] = target: T2, LARP1 323-410 Q333A (Homo sapiens, UniProt Q6PKG0); experiment: ITC of RNA ligands binding LARP1 323-410 Q333A; conditions: Q333A mutant; LaM 30 (cell), RNA 300-600 (syringe)
T2 construct: ITC Data Collection and Analysis for LARP1 323-410 Q333A; His-tag; made in house; host or cells: E. coli
Method: (§1) ITC experiments were performed on the VP-ITC titration calorimeter (Malvern Instruments Ltd) except where noted. The syringe was loaded with 300 µM RNA sample, while the sample cell contained 20–30 µM LARP1 (323–410) sample. All experiments were carried out at 20°C with 29 injections of 10 µl. Results were analysed using ORIGIN software (MicroCal) and fitted to a binding model with a single set of identical sites, except where noted.
(§2) Table S3. ITC Data Collection and Analysis for LARP1 323-410 Q333A
(§3) RNA Kd, nM relative to DH, kcal mol-1 DS, cal mol-1 K-1 Conc., µM
(§4) 1Data acquired on iTC200 (Malvern Instruments Ltd).

LARP1 323-410 Q333A [3] = target: T3, LARP1 323-410 Q333A (Homo sapiens, UniProt Q6PKG0, Q410A); experiment: ITC of RNA ligands binding LARP1 323-410 Q333A; conditions: Q333A mutant
T3 construct: ITC Data Collection and Analysis for LARP1 323-410 Q333A; His-tag; made in house; host or cells: E. coli
Method: as §1, §2, §3, §4

[4] = target: T1, human LARP1 LaM domain (residues 323–410); conditions: ITC of RNA oligonucleotides; cited from earlier work
[5] = target: T1, human LARP1 LaM domain (residues 323–410); experiment: NMR titration of single nucleotides into 15N-labelled LARP1 (323-410), chemical shift changes; assay type: binding; conditions: for Kd: 0.1 mM 15N-LARP1 (323-410), 10 mM MES pH 6.3, 100 mM NaCl, 25°C, fit accounts for bound ligand, two nucleotide binding sites, read-out: Kd, binding affinity estimated from chemical shift change (I364 amide) as a function of nucleotide concentration
Method: We carried out NMR titrations with single nucleotides binding to^15N-labelled LARP1 LaM to isolate the individual nucleotide interactions (Figure 1A). The addition of nucleotides caused spectral changes similar to those observed with the hexamer A6 but with smaller shifts and fewer signals affected (Suppl. Figure S1). […] The signals with the largest changes were the amide of Ile364 and side chain amides of Gln333.
At 200 µM, 5´-GMP shifted the Gln333 signal twice as much as 5´-AMP. […] We used the size of the chemical shift change as a function of nucleotide concentration to estimate binding affinities (Figure 1C). […] This had the advantage that it also provided an estimate of the binding stoichiometry. For 5´-GMP, the stoichiometry was measured to be 2.04 with an affinity of 40 µM. […] This is at odds with the affinities of oligonucleotides measured by isothermal titration calorimetry (ITC).
NMR samples were exchanged into 10 mM MES pH 6.3, 100 mM NaCl, 1 mM TCEP. For NMR titrations, nucleotides were added to 0.1 mM^15N-labelled LARP1 (323–410) to final molar ratios of 5:1. All NMR experiments were performed at 25°C using a Bruker 600 MHz spectrometer. NMR spectra were processed using NMRPipe and analysed with SPARKY [51]. Binding affinities were measured by fitting the observed chemical shift changes accounting for bound ligand with a stoichiometry of two nucleotide binding sites.

[6] = ITC, 20°C, LaM 20-30 µM in cell, RNA 300 µM in syringe, single set of identical sites, read-out: Kd
[7] = ITC, 20°C, LaM in cell, RNA in syringe
[8] = Table S1, LaM in cell, RNA in syringe
[9] = ITC, 20°C, LaM in cell, RNA in syringe, read-out: Kd
[10] = reversed titration: RNA 15 (cell), LaM 300 (syringe)

Compound: 5´-APAPAPAPAPA-3´ [AAAAAA]
- Rel. aff. (affinity relative to AAAAAA) [1]: 1.0
- Kd [1, 6]: 0.25 µM
- ΔH [1, 7]: -19.9 kcal/mol
- ΔS [1, 7]: -37.6 cal mol^-1 K^-1
- Affinity relative to A6 [1, 8]: 1

Compound: 5´-APAPAPAPAPG-3´ [AAAAAG]
- Kd (LARP1 323-410 Q333A [2]): 19 ± 2 µM
- ΔH (LARP1 323-410 Q333A [3]): -27.8 kcal/mol
- ΔS (LARP1 323-410 Q333A [3]): -73.2 cal mol-1 K-1
- Rel. aff. (affinity relative to AAAAAA) [1]: 1.9
- Kd [1, 6]: 0.13 ± 0.02 µM
- ΔH [1, 7]: -27.5 kcal/mol
- ΔS [1, 7]: -62.3 cal mol^-1 K^-1

Compound: 5´-APAPAPAPAPSA-3´ [(RP)-AAAAAPSA]
- Kd [1, 6]: 0.29 µM
- ΔH [1, 7]: -19.4 kcal/mol
- ΔS [1, 7]: -36.2 cal mol^-1 K^-1
- Affinity relative to A6 [1, 8]: 1.16

Compound: 5´-APAPAPAPAPSA-3´ [(SP)-AAAAAPSA]
- ΔH [1, 7]: -23.1 kcal/mol
- ΔS [1, 7]: -57.1 cal mol^-1 K^-1
- Kd [1, 9]: 17 µM
- fold lower affinity of the (SP)-phosphorothioate ([1]; ITC, Figure 5D, compared with the (RP)-phosphorothioate): 60 fold
- Affinity relative to A6 [1, 8]: 68

Compound: 5´-APAPAPAPGPA-3´ [AAAAGA]
- Kd (LARP1 323-410 Q333A [2]): 10 ± 6 µM
- ΔH (LARP1 323-410 Q333A [3]): -10.2 kcal/mol
- ΔS (LARP1 323-410 Q333A [3]): -11.9 cal mol-1 K-1
- Rel. aff. (affinity relative to AAAAAA) [1]: 3.2
- ΔH [1, 7]: -29.5 kcal/mol
- ΔS [1, 7]: -68.0 cal mol^-1 K^-1
- Affinity relative to A6 [1, 8]: 0.32

Compound: 5´-APAPAPGPAPA-3´ [AAAGAA]
- Rel. aff. (affinity relative to AAAAAA) [1]: 1.8
- Kd [1, 6]: 0.14 ± 0.02 µM
- ΔH [1, 7]: -27.7 kcal/mol
- ΔS [1, 7]: -63.2 cal mol^-1 K^-1
- Affinity relative to A6 [1, 8]: 0.56

Compound: 5´-APG-3´ [AG]
- ΔH [1, 7]: -23.9 kcal/mol
- ΔS [1, 7]: -56.2 cal mol^-1 K^-1
- Kd [1, 9]: 3.1 µM and ~3 µM
- Affinity relative to A6 [1, 8]: 12.4

Compound: 5´-GPG-3´ [GG]
- Kd ([1]; ITC, 20°C, LaM 20-30 µM in cell, RNA 300 µM in syringe, single set of identical sites): not fitted
- Kd [1, 7]: Not fittable
- Affinity relative to A6 ([1]; Table S1, reversed titration: RNA 15 (cell), LaM 300 (syringe)): 11.2
- Kd ([1]; reversed titration: GG (15 µM) in cell + LaM (300 µM) in syringe, read-out: Kd): 2.8 µM and ~3 µM
- ΔH [1, 10]: -34.1 kcal/mol
- ΔS [1, 10]: -91.1 cal mol-1 K-1

Compound: 5´-UPUPUPUPUPU-3´ [UUUUUU]
- Kd (LARP1 323-410 Q333A [2]): 100 ± 30 µM
- ΔH (LARP1 323-410 Q333A [3]): -11.0 kcal/mol
- ΔS (LARP1 323-410 Q333A [3]): -19.2 cal mol-1 K-1
- fold weaker binding affinity than A6 [4]: 11 fold
- Kd [1, 6]: 1.8 ± 0.1 µM
- ΔH [1, 7]: -21.4 kcal/mol
- ΔS [1, 7]: -46.6 cal mol^-1 K^-1
- Affinity relative to A6 [1, 8]: 7.2

Compound: Nc1nc2c(ncn2[C@@H]2O[C@@H]3COP(=O)(O)O[C@H]4[C@@H](O)[C@H](n5cnc6c(N)ncnc65)O[C@@H]4COP(=O)(O)O[C@H]3[C@H]2O)c(=O)[nH]1 [3',3'-cGAMP, 3‘,3’-cGAMP]
- Kd [1]: 0.7 ± 0.3 µM
- binding to the LaM domain by ITC (in words) [1]: sub-micromolar affinity
- Affinity relative to A6 (site 1) ([1]; Table S1): 2.8
- Affinity relative to A6 (site 2) ([1]; Table S1): 440
- ΔH (site 1) ([1]; Table S1): 0 kcal/mol
- ΔH (site 2) ([1]; Table S1): 4.8 kcal/mol
- ΔS (site 1) ([1]; Table S1): 28.3 cal mol-1 K-1
- ΔS (site 2) ([1]; Table S1): 34.4 cal mol-1 K-1
- Kd ([1]; read-out: Kd2, second site, fit with two independent sets of sites, LaM 40 μM + ligand 730-750 μM): 110 µM
- Kd ([1]; read-out: Kd (site 2), Table S1, LaM 40 (cell), ligand 730-750 (syringe)): > 10 µM

Compound: Nc1ncnc2c1ncn2[C@@H]1O[C@H](COP(=O)(O)O)[C@@H](OP(=O)(O)O)[C@H]1O [3',5'-ADP, 3´,5´-ADP]
- Gln333 signal change (in words) ([5]; NMR titration): broadened the Gln333 signal beyond detection
- Ile364 chemical shift change (in words) ([5]; NMR titration): small shift

Compound: Nc1ncnc2c1ncn2[C@@H]1O[C@H](CO)[C@@H](OP(=O)(O)O)[C@H]1O [3'-AMP, 3´-AMP]
- Ile364 chemical shift change (in words) ([5]; NMR titration): not appreciably shifted
- shift of the Ile364 peak, fold smaller than with 5´-AMP ([5]; NMR titration): 30 fold

Compound: Nc1ncnc2c1ncn2[C@@H]1O[C@H](COP(=O)(O)O)[C@@H](O)[C@H]1O [5'-AMP, 5´-AMP]
- Kd [5]: 130 µM

Compound: Nc1nc2c(ncn2[C@@H]2O[C@H](COP(=O)(O)O)[C@@H](O)[C@H]2O)c(=O)[nH]1 [5'-GMP, 5´-GMP]
- Kd [5]: 40 µM
- shift of the Gln333 signal relative to 5´-AMP ([5]; at 200 µM nucleotide): twice as much
- binding stoichiometry ([5]; from fit of NMR chemical shift changes): 2.04

Compound: Nc1nc2c(ncn2[C@@H]2O[C@@H]3CO[P@](=O)(O)O[C@H]4[C@@H](O)[C@H](n5cnc6c(=O)[nH]c(N)nc65)O[C@@H]4CO[P@](=O)(O)O[C@H]3[C@H]2O)c(=O)[nH]1 [cyclic-di-GMP, Cyclic-di-GMP]
- binding to the LaM domain by ITC (in words) [1]: sub-micromolar affinity
- Affinity relative to A6 (site 1) ([1]; Table S1): 1.2
- Affinity relative to A6 (site 2) ([1]; Table S1): 220
- ΔH (site 1) ([1]; Table S1): 0 kcal/mol
- ΔH (site 2) ([1]; Table S1): 2.0 kcal/mol
- ΔS (site 1) ([1]; Table S1): 29.8 cal mol-1 K-1
- ΔS (site 2) ([1]; Table S1): 26.5 cal mol-1 K-1
- Kd ([1]; Table S1, LaM 40 (cell), ligand 730-750 (syringe), read-out: Kd (site 1)): 0.3 ± 0.3 µM
- Kd ([1]; Table S1, LaM 40 (cell), ligand 730-750 (syringe), read-out: Kd (site 2)): > 10 µM
- Kd ([1]; second site, fit with two independent sets of sites, LaM 40 μM + ligand 730-750 μM, read-out: Kd2): 54 µM
